{
  "source": "paper PMC4564290",
  "about": "(Journal of Molecular and Cellular Cardiology, 2015)",
  "key": {"Y652A hERG": {"target": "Y652A hERG (Homo sapiens, UniProt Q12809, Y652A)", "sequence (Q12809 whole entry Y652A)": "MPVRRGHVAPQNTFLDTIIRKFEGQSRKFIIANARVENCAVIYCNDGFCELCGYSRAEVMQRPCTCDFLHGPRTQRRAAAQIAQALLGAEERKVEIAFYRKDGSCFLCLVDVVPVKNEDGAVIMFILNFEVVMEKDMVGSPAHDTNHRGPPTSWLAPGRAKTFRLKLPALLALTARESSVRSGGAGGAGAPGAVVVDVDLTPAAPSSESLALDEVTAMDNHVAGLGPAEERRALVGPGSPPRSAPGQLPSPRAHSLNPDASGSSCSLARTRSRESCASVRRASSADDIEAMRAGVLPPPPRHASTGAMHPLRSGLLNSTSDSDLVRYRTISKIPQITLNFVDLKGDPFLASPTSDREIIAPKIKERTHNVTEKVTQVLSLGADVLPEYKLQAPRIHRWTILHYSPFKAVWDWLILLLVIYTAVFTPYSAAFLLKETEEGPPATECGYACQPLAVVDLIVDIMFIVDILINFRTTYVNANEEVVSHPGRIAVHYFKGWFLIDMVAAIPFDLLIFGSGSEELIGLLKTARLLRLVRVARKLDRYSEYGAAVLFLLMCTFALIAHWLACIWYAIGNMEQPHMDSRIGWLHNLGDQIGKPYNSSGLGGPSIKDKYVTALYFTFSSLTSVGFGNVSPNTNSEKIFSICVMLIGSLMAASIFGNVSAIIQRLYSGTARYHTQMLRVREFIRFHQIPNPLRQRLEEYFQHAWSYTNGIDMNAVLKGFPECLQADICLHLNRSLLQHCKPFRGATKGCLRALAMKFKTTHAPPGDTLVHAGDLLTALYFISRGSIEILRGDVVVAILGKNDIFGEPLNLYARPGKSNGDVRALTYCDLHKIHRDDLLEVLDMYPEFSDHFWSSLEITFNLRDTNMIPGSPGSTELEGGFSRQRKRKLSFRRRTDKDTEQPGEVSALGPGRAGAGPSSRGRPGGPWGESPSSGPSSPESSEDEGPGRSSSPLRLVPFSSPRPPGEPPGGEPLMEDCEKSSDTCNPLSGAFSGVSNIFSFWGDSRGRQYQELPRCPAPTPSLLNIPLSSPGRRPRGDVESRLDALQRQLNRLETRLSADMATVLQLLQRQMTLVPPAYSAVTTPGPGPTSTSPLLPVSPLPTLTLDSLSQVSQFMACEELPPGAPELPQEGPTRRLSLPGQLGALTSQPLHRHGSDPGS", "set-up": "expressed in transfected cells", "settings": "300 μM (profound blocking concentration for WT IhERG), Xenopus oocyte expression; cited from earlier work"}, "F656A hERG [1]": {"target": "T1, F656A hERG (Homo sapiens, UniProt Q12809, F656A)", "T1 sequence (Q12809 whole entry F656A)": "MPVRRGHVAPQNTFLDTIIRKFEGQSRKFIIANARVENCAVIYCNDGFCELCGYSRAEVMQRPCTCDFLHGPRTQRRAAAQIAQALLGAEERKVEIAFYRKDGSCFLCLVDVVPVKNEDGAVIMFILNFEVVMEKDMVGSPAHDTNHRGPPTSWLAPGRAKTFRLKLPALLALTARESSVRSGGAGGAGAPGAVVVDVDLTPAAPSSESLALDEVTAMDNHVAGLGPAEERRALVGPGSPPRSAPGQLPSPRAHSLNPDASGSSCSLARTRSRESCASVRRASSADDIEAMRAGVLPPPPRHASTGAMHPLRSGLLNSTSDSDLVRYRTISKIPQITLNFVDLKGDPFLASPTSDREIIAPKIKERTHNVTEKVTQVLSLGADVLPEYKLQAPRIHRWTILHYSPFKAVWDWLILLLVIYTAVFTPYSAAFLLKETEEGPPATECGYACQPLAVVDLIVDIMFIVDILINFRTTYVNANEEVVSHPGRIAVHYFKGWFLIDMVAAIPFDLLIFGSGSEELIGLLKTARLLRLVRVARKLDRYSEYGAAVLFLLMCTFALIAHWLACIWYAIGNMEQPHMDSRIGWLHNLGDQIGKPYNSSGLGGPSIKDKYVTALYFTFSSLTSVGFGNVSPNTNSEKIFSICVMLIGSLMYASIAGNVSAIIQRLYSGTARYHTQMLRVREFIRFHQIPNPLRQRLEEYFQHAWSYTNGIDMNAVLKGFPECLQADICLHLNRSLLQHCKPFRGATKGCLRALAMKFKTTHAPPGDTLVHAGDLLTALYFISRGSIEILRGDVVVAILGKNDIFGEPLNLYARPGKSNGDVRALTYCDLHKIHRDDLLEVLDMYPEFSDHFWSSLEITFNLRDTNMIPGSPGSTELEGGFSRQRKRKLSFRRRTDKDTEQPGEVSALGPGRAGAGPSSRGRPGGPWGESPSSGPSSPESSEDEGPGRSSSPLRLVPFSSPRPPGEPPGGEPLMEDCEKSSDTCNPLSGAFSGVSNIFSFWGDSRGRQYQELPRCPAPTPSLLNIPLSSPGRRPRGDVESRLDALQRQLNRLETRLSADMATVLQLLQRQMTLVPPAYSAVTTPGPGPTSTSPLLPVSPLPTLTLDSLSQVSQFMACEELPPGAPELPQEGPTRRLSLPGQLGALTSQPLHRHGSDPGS", "settings": "300 μM (profound blocking concentration for WT IhERG), Xenopus oocyte expression; cited from earlier work"}, "F656V hERG": {"system": "F656V hERG", "settings": "cited from earlier work"}, "[2]": {"target": "T2, wild-type (WT) hERG channels (Homo sapiens, UniProt Q12809)", "T2 construct": "expressed in transfected cells", "assay": "Whole-cell patch clamp of WT IhERG in HEK293 cells at 37 °C", "assay_type": "cell-based", "settings": "for Fraction of unblocked IhERG: 6–8 min; for Whole-cell IhERG current density: ~6 min, drug-free control 315.3 ± 56.7", "method": "(§1) HEK cells stably or transiently expressing hERG channel constructs were cultured as previously described [[34,37]]. The cells were plated in 40 mm petri dishes at least 48 h before transfection and incubated at 37 °C (5% CO2). Cells were transfected with Lipofectamine™ LTX (Invitrogen) following the manufacturer's instructions. The amount of transfected hERG construct DNA varied between 0.2 and 1.0 μg depending on the level of functional expression (assessed as current magnitudes) of each hERG channel construct. 0.5 to 1.0 μg of CD8 was co-transfected as a transfection-marker and successfully transfected cells were identified using Dynabeads® (Invitrogen). Cells were plated on small sterilized glass shards in 40 mm petri dishes and incubated at 37 °C (5% CO2) for at least 24 h before electrophysiological recording.\n(§2) Glass shards containing plated cells were placed in a recording chamber mounted on an inverted microscope (Nikon Diaphot, USA). The cells were continuously superfused with a pre-warmed (37 °C) standard Tyrode's solution containing (in mM) the following: 140 NaCl, 4 KCl, 2.5 CaCl2, 1 MgCl2, 10 Glucose, 5 HEPES (titrated to pH 7.4 with NaOH). […] Patch-pipettes were dialysed with an intracellular solution containing (in mM) the following: 130 KCl, 1 MgCl2, 5 EGTA, 5 MgATP, 10 HEPES (titrated to pH 7.2 with KOH). All recordings were made using an Axopatch 200B amplifier (Axon Instruments, now Molecular Devices) and a CV203BU head-stage. Pipette resistance compensation was between 70 and 80%. […] Data digitization rates were 10–25 kHz during all voltage protocols and an appropriate bandwidth of 2–10 kHz was set on the amplifier.\nFor statistical analysis, data were subject to the Kolmogorov–Smirnov normality test. Statistical comparisons were made using paired or unpaired two-tailed t tests, Wilcoxon matched pairs signed rank test, Mann–Whitney U test and one way (repeated measures, where indicated) or two way ANOVA, as appropriate.\nBlock of IhERG was assessed by calculating the reduction in drug of the outward ‘tail’ current at − 40 mV (assessed as the difference in magnitude between peak tail current and instantaneous current activated by the brief (50 ms) depolarization from − 80 to − 40 mV [[24,34,37]]). […] The fractional inhibition at each of four concentrations was calculated using Eq. (1) (supplementary information) and the mean values were plotted as shown in Fig. 1D and then fitted with a standard Hill equation (Eq. (2), supplementary information). […] The low expression and kinetics of some mutant channels included in this study requires that IhERG be studied as an inward current in high (94 mM) [K^+]o [[34,35,37]].\nWe tested the effect of two concentrations (10 and 100 μM) of each analogue applied from the cell exterior (superfusate) and interior (the latter through the patch-pipette). […] As soon as the whole-cell configuration was achieved the drug molecules were free to diffuse inside the cytoplasm, precluding cells acting as their own control."}, "[3]": {"settings": "cited from earlier work"}, "N588K hERG": {"target": "N588K hERG (Homo sapiens, UniProt Q12809, N588K)", "sequence (Q12809 whole entry N588K)": "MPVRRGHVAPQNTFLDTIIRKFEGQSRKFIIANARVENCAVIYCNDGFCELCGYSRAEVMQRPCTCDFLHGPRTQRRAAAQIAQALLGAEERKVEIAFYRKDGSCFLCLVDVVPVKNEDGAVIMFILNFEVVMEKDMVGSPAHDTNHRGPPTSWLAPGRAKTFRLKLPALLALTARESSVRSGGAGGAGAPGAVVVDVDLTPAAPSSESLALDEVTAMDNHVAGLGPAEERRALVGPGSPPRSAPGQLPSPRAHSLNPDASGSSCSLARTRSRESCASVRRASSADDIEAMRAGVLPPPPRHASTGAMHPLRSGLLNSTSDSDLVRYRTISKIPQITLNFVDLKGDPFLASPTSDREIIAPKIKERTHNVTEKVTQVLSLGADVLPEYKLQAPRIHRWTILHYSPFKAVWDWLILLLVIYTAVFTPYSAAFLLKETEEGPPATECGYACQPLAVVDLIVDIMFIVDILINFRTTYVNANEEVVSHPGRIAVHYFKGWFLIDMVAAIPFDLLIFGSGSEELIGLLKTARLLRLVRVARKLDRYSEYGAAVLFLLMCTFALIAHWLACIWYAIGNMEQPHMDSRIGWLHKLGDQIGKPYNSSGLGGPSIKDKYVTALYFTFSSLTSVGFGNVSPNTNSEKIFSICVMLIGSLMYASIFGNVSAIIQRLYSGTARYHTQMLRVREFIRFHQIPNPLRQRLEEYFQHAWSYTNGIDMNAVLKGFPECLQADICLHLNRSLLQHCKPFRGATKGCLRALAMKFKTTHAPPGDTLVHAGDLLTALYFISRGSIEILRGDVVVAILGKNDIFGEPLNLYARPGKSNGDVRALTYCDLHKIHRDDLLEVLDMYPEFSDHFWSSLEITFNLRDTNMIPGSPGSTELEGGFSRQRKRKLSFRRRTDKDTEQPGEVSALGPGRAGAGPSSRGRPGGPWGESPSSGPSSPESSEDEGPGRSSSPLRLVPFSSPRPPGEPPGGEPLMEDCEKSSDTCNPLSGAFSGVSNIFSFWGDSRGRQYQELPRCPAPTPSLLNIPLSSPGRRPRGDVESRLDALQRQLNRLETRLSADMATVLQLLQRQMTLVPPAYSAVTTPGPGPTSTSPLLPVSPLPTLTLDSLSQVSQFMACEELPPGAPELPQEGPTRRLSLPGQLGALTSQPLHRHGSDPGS", "set-up": "expressed in transfected cells; host or cells: HEK cells", "settings": "IC50 mutant/IC50 WT; mammalian expression; ref 15 of supplement; cited from earlier work"}, "F656A hERG [4]": {"target": "T1, F656A hERG", "assay": "Patch clamp of F656A S6 helix mutant IhERG", "assay_type": "cell-based", "set-up": "expressed in transfected cells; host or cells: HEK cells", "settings": "internal (patch-pipette) application 100 µM, tails at -120 mV, n=8 vs control n=12", "method": "as §1, §2\nTo investigate potential binding determinants in the pore region we studied alanine mutants of three residues (G648, Y652 and F656) located within the channel inner cavity on the S6 helix. […]"}, "[5]": {"system": "feline ventricular E-4031 sensitive delayed rectifier current", "settings": "cited from earlier work"}, "[6]": {"system": "Kv1.5 V505 mutated to phenylalanine", "set-up": "method as in PMID 17872968", "settings": "cited from earlier work"}, "L-type calcium current": {"system": "L-type calcium current", "settings": "cited from earlier work"}, "[7]": {"settings": "external application (superfusate) 10 μM"}, "[8]": {"settings": "external application (superfusate) 100 μM"}, "[9]": {"settings": "internal application via patch-pipette 10 μM"}, "[10]": {"settings": "internal application via patch-pipette 100 μM"}},
  "note": "“Also recorded” adds a separate entry of the source.",
  "data": [
    {"compound": "CC[C@H]1[C@@H]2C[C@H]3[C@@H]4N(C)c5ccccc5[C@]45C[C@@H]([C@H]2[C@H]5O)N3[C@@H]1O", "note": "[ajmaline]", "values": [
      {"measurement": "Inhibitory action on Y652A IhERG", "setting": "Y652A hERG", "result": "ineffective"},
      {"measurement": "Inhibitory action on F656A IhERG", "setting": "F656A hERG [1]", "result": "ineffective"}
    ]},
    {"compound": "C=C[C@H]1C[N@@]2CC[C@H]1C[C@@H]2[C@@H](O)c1ccnc2ccc(OC)cc12", "note": "[Quinidine]", "values": [
      {"measurement": "Increase in IhERG IC50 with F656V", "setting": "F656V hERG", "result": "~ 27 fold"}
    ]},
    {"compound": "O=C(NCCN1CCOCC1)c1cc(OCC(F)(F)F)ccc1OCC(F)(F)F", "note": "[NU-Flec]", "values": [
      {"measurement": "Fraction of unblocked IhERG", "setting": "[2]; [7]", "result": "75.8 ± 4.4", "unit": "%"},
      {"measurement": "Fraction of unblocked IhERG", "setting": "[2]; [8]", "result": "50.2 ± 4.3", "unit": "%"},
      {"measurement": "Whole-cell IhERG current density", "setting": "[2]; [9]", "result": "283.2 ± 63.4", "unit": "pA/pF"},
      {"measurement": "Whole-cell IhERG current density", "setting": "[2]; [10]", "result": "359.8 ± 56.1", "unit": "pA/pF"},
      {"measurement": "pKa", "setting": "[3]", "result": 6.3}
    ]},
    {"compound": "CC(C)NC[C@@H](O)c1ccc(NS(C)(=O)=O)cc1", "note": "[D-Sotalol]", "values": [
      {"measurement": "Fold-change in IC50 N588K compared to WT IhERG", "setting": "N588K hERG", "result": 20, "unit": "fold"}
    ]},
    {"compound": "C[N+]1(C)CCCCC1CNC(=O)c1cc(OCC(F)(F)F)ccc1OCC(F)(F)F", "note": "(centres unmarked) [QX-Flec]", "values": [
      {"measurement": "Fraction of unblocked IhERG", "setting": "[2]; [7]", "result": "72.2 ± 4.6", "unit": "%"},
      {"measurement": "Fraction of unblocked IhERG", "setting": "[2]; [8]", "result": "54.6 ± 3.5", "unit": "%"},
      {"measurement": "Whole-cell IhERG current density", "setting": "[2]; [9]", "result": "55.3 ± 5.9", "unit": "pA/pF"},
      {"measurement": "Whole-cell IhERG current density", "setting": "[2]; [10]", "result": "9.3 ± 1.9", "unit": "pA/pF"},
      {"measurement": "Effect on density of inward F656A IhERG tails vs drug-free control", "setting": "F656A hERG [4]", "result": "ineffective; also recorded: no significant difference; also recorded: little inhibition"}
    ]},
    {"compound": "O=C(NCC1CCCCN1)c1cc(OCC(F)(F)F)ccc1OCC(F)(F)F", "note": "(centres unmarked) [flecainide, Flecainide acetate]", "values": [
      {"measurement": "IC50", "setting": "[5]", "result": 2.1, "unit": "µM"},
      {"measurement": "Increase in blocking potency on mutating V505 to phenylalanine", "setting": "[6]", "result": 9, "unit": "fold"},
      {"measurement": "IC50", "setting": "L-type calcium current", "result": "~20", "unit": "µM"}
    ]}
  ]
}
